Measured values reported in patent US5302514A, “Maltooligoside derivative, reagent for determining α-amylase activity containing the same as effective ingredient and a process for determining the α-amylase activity using same” (Kikkoman Corporation, priority 1991, dated 1994).

Experiments:
[1] = target: T1, amylase derived from human saliva (human S type α-amylase) (Homo sapiens, UniProt P0DUB6); test: Km value, S type α-amylase; type: biochemical; conditions: pH 7.0, 37° C., Lineweaver-Burk
T1 sequence (P0DUB6 16-511): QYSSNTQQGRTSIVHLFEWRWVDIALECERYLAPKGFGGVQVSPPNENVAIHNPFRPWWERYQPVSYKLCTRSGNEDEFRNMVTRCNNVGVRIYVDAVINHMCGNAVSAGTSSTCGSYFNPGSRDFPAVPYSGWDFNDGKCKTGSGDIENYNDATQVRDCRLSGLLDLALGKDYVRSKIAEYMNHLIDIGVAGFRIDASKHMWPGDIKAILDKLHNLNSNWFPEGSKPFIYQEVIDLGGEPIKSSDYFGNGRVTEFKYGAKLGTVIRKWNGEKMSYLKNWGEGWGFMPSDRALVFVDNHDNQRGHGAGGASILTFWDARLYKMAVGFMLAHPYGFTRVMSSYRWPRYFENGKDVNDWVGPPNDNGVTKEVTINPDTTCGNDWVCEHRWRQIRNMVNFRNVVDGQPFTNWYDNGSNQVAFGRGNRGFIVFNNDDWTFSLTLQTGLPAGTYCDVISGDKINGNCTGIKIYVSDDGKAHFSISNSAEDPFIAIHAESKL
Experimental: Km values, hydrolysis rate, water solubility and the patterns of action in the hydrolysis of the present substrates 2-chloro-4-nitrophenyl 5^5 -eno-4^5 -O-mesyl-β-D-maltopentaoside (EMG5CNP) and 2-chloro-4-nitrophenyl 6^5 -azido-6^5 -deoxy- β-D-maltopentaoside (ADG5CNP) obtained in Example were examined in accordance with the following methods.
Substrate solutions were prepared by dissolving in a 50 mM phosphate buffer (pH=7.0) containing 40 mM NaCl and 2 mM MgCl2 a substrate to 0.16, 0.32, 0.48, 0.64, 0.80 and 0.96 mM, respectively.
The Km value of each substrate solution was obtained by measuring the hydrolysis rate of the substrate in accordance with the same procedure as in the measurement of hydrolysis rate described below and roughly calculating the Lineweaver-Burk's reciprocal plot (see "Tanpaku-Kohso no Jikken-hou", ed. Takeichi Horio & Jinpei Yamashita, Nanko-do, 1981).
Each substrate was dissolved in a 50 mM phosphate buffer (pH=7.0) containing 40 mM NaCl and 2 mM MgCl2 to make three substrate solutions in a concentration of 0.8-1.6 times and three substrate solutions in a concentration of 1.6-3.2 times per the roughly calculated Km value in the aforementioned paragraph (ii).
The Km value was calculated in accordance with the same procedure as in the aforementioned paragraph (ii).
S: amylase derived from human saliva.

[2] = target: T2, amylase derived from human pancreatic juice (human P type α-amylase) (Homo sapiens, UniProt P04746); test: Patterns of action (hydrolyzed product by HPLC), P type α-amylase; type: biochemical; conditions: 0.5 mM substrate, 37° C., 20 minutes
T2 sequence (P04746 16-511): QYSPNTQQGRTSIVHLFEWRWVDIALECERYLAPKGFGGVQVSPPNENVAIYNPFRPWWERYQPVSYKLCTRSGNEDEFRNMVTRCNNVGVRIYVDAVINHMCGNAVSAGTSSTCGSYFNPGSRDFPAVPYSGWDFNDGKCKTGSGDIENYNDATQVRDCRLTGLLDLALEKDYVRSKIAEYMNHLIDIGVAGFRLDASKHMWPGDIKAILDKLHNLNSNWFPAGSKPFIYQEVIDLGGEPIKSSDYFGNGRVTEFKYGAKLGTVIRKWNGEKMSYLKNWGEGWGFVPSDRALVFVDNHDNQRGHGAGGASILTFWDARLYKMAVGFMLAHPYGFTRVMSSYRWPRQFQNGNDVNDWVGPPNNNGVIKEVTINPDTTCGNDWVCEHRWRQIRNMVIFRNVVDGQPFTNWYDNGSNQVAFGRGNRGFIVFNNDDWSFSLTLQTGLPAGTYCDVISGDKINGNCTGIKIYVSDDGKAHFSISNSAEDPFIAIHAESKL
Experimental: Commercially available human P type and S type α-amylase solutions having a concentration of ca. 500 IU/l were prepared in the same manner as in the step (3) of Example 5.
To 1.0 ml of the substrate solution was added 100 μl of the α-amylase solution prepared in the paragraph (iii) of the aforementioned hydrolysis rate, and the mixture, after stirred sufficiently, was subjected to reaction at 37° C. for 20 minutes. The hydrolyzed product was determined quantitatively by the high performance liquid chromatography of the reaction mixture.
P: amylase derived from human pancreatic juice, […]

Q: `[N-]=[N+]=NC[C@H]1O[C@H](O[C@H]2[C@H](O)[C@@H](O)[C@@H](O[C@H]3[C@H](O)[C@@H](O)[C@@H](O[C@H]4[C@H](O)[C@@H](O)[C@@H](O[C@H]5[C@H](O)[C@@H](O)[C@H](Oc6ccc([N+](=O)[O-])cc6Cl)O[C@@H]5CO)O[C@@H]4CO)O[C@@H]3CO)O[C@@H]2CO)[C@H](O)[C@@H](O)[C@@H]1O` [ADG5CNP, 2-chloro-4-nitrophenyl 6^5-azido-6^5-deoxy-β-D-maltopentaoside] was tested. Which Km [1] did it give?
A: 260 µM

Q: What about the “Patterns of action, hydrolyzed product G2CNP” value [2] of the same molecule?
A: 97 mol %

Q: What about the “Patterns of action, hydrolyzed product G3CNP” value [2] of the same molecule?
A: 3 mol %

Q: And the “Patterns of action, hydrolyzed product G4CNP” value [2]?
A: 0 mol %

Q: What about the “Patterns of action, hydrolyzed product GCNP” value [2] of the same molecule?
A: 0 mol %

Q: With `C=C1O[C@H](O[C@H]2[C@H](O)[C@@H](O)[C@@H](O[C@H]3[C@H](O)[C@@H](O)[C@@H](O[C@H]4[C@H](O)[C@@H](O)[C@@H](O[C@H]5[C@H](O)[C@@H](O)[C@H](Oc6ccc([N+](=O)[O-])cc6Cl)O[C@@H]5CO)O[C@@H]4CO)O[C@@H]3CO)O[C@@H]2CO)[C@H](O)[C@@H](O)[C@@H]1OS(C)(=O)=O` [EMG5CNP, 2-chloro-4-nitrophenyl 5^5-eno-4^5 -O-mesyl-β-D-maltopentaoside] as the molecule, how does the Km [1] read?
A: 140 µM

Q: What about the “Patterns of action, hydrolyzed product G2CNP” value [2] of the same molecule?
A: 97 mol %

Q: And the “Patterns of action, hydrolyzed product G3CNP” value [2]?
A: 0 mol %

Q: And the “Patterns of action, hydrolyzed product G4CNP” value [2]?
A: 0 mol %

Q: What about the “Patterns of action, hydrolyzed product GCNP” value [2] of the same molecule?
A: 3 mol %
